Measurements as given in patent publication US12139534B2, “Methods and compositions for decreasing soluble immune receptor CD28” (BIOND BIOLOGICS LTD., priority 2018, dated 2024).

Assays:
human PBMCs [1] = assay: SEB or CMV stimulated PBMCs with anti-PD1 and/or soluble CD28, cytokine secretion; format: cell-based
[2] = test system: autologous monocytes and CD3 T cells; assay: Autologous monocytes CD3 MLR with CMV peptide, cytokine secretion; format: cell-based, human
Procedure: Autologous monocytes CD3 MLR—0.5×10^6 T cells were mixed with 0.5×10^5 monocytes from same CMV reactive donor and stimulated with 0.5 μg/mL CMV peptivator for 6 days at 37° C. with/without the indicated concentration of treatments.
The mixed cells were stimulated for 5 days with CMV peptide (0.5 μg/mL) with and without increasing concentrations of recombinant human sCD28.
The MLR was run as before only with and without sCD28 and with and without an anti-PD1 antibody (MK3475, 5 μg/mL) (FIG. 9B).

SCC-25 cells = assay: SCC-25 cancer cell line trans-well co-culture with monocytes, proliferation; format: cell-based, human
Procedure: Co-culture of SCC-25 cancer cell line with monocytes in trans-well based assay—4×10^4 SCC-25 cells were plated on the bottom of 24 well plate with 1×10^5 monocytes placed on cell culture insert (Millipore, Cat. No. MCHT241148) with or without indicated treatments for 4 days in starvation media without serum.
Next, cells of the head and neck cancer cell line SCC-25 were incubated either alone or with monocytes in a trans-well assay. SCC-25 cells grown alone were administered IL-6 as a positive control, and indeed cell proliferation, as measured by MTT (FIG. 10D, upper) and as measured by % confluency (FIG. 10D, lower), was increased.

human PBMCs [3] = assay: Viability of SEB stimulated PBMCs with ADAM inhibitors (MTT assay); format: cell-based; conditions: SEB 1 ng/mL, inhibitor 0.01-1 μM, with vs without inhibitor
human PBMCs [4] = assay: Soluble CD28 generation by SEB or CMV stimulated PBMCs, human CD28 ELISA; format: cell-based; conditions: for sCD28 levels detected with antibodies of the invention: stimulated cells with protease inhibitors, sandwich ELISA
Procedure: (§1) ELISA—Commercial ELISA kits were used for quantitation of the amount of human interferon-gamma (Biolegend, Cat. No. 430103), human interleukin 2 (Biolegend, Cat. No. 431802), human interleukin 6 (Biolegend, Cat. No. 430502), human interleukin 10 (Biolegend, Cat. No. 430603), human […] beta 1 (Biolegend, Cat. No. 436708), human interleukin beta 1 (Biolegend, Cat. No. 437004) and human CD28 (R&D system, Cat. No. DY342). Cell Proliferation and viability (MTT assay) was conducted according to manufacturer instructions (Roche, cat #11465007001). Kynurenine (IDO activity) ELISA kit was conducted according to manufacturer instructions (ImmuSmo Cat #BA E-2200).
(§2) Protease Inhibitors—Protease inhibitors were added at the indicated concentrations at the start of each experiment. In week long assays another portion of the inhibitors was added after 3 days at the final concentration. […] Where mentioned the protease cocktail was composed with a mixture of TAPI-1 and GM6001 at equimolar ratio.
SEB or CMV activation of PBMCs for the generation of soluble CD28—0.3×10^6 PBMCs were stimulated with 0.5 ng/mL SEB (Sigma, Cat. No. S4881) for 5-7 days at 37° C. with/without the indicated concentration of various protease inhibitors in 48 well plate. Alternatively, 0.1×10^6 PBMCs were stimulated with 0.5 ng/mL SEB in 96 well plate format assay. For CMV stimulation 0.5×10^6 PBMCs were stimulated with 0.5 μg/mL CMV peptivator (Milteny Biotec, Cat. No. 130-093-435) for 2-5 days at 37° C. with/without the indicated concentration of various protease inhibitors in a 96 well plate. For continuous shedding experiments PBMC were stimulated with SEB or CMV in 24 well plate for 24 hr, cells were taken and washed three times with RPMI without stimulant and plated again in a 96 well plate. Samples were taken at indicated times and put under freezing conditions until examination for soluble CD28.

[5] = test system: PBMCs isolated from cancer patients; assay: SEB stimulated PBMCs of cancer patients, IFN gamma secretion; format: cell-based, human; conditions: SEB 5 ng/mL, 3 days
human PBMCs [6] = assay: Lymphocyte clustering of SEB stimulated PBMCs (IncuCyte); format: cell-based; conditions: SEB 1 ng/mL; human IgG control
Procedure: Next, human PBMCs were stimulated with SEB (1 ng/mL) without or in the presence of recombinant human CD28. Human IgG was used as control. Lymphocyte clustering, a hallmark of immune activation was monitored using the IncuCyte® S3 Live-Cell, with pictures taken every 12 hours. […] It is well established that during in-vitro immune response antigen presenting cells (APC) cluster with one another and with other cell types, and clustering is essential for the antigen specific activation of resting lymphocytes.

[7] = test system: isolated CD3 human T cells; assay: CD3 T cells stimulation with anti-CD3 OKT3, IFN gamma secretion; format: cell-based; conditions: OKT3 2 μg/mL, CD80-Fc 2 μg/mL, sCD28 titration
Procedure: T cells stimulation with OKT3—0.1×10^6 isolated CD3 T cells (from healthy donors) were stimulated with indicated amount of anti-CD3 clone OKT3 for 48-72 hr at 37° C. When stated recombinant human CD80-Fc (2 μg/mL, R&D system) was added in soluble form. Antibodies to CD28 or controls were added at the indicated concentration in soluble form.
CD80 is one of the two main ligands for mCD28 along with CD86. The extracellular domain of CD80 fused to an Fc moiety has been used as an immune stimulatory molecule and is under investigation as a cancer therapy. In order to examine the effect of sCD28 on CD80-Fc efficacy, isolated CD3 human T cells were stimulated with plate bound anti-CD3 antibody (OKT3, 2 μg/mL) in the presence of 2 μg/mL soluble recombinant human CD80-Fc.

human PBMCs [8] = assay: CMV stimulation of PBMCs with ectopic recombinant human CD28, CTLA-4, CD80; cytokine ELISA/multiplex; format: cell-based
human monocytes = assay: Stimulation of monocytes with recombinant human CD28 (IDO, PD-L1, PD-L2); format: cell-based; conditions: recombinant human CD28 10 μg/mL
Procedure: Flow Cytometry—Generally, cells were kept on ice during all steps. Prior to staining, 5×10^5 cells were blocked with 50 μg/mL human IgG (Sigma, Cat. No. 14506) in FACS buffer (PBS with 0.1% BSA) for 15 min. Antibodies were used at concentrations recommended by the manufacturer and incubated for 30 min. in the dark. Incubations were done in a volume of 100 μL in 96-well U bottom plates. Cells were washed twice with 200 μL of FACS buffer and transferred to FACS tubes in 150 μL of FACS buffer for analysis. Cells were analyzed on a Gallios Flow Cytometer (Beckman Coulter) using the Kaluza for Gallios Flow Cytometry Acquisition Software.
Stimulation of monocytes with recombinant human CD28—1.5×10^6 monocytes were plated at 24 well plate in RPMI medium with […] IFN gamma (R&D system, Cat. No. 285-IF) in the presence of recombinant human CD28 at the indicated concentrations for 48 hrs. The generated cell populations were tested for the indicated phenotypes by FACS analysis of relevant markers (IDO, PD-L1 and PD-L2) and by analysis of secretion of characteristic cytokines (IL-6).
The enzyme indoleamine 2,3-dioxygenase (IDO) has been implicated in immune modulation through its ability to catabolize the essential amino acid Tryptophan. It is expressed by different immune cells and also by many cancer cells. Tryptophan shortage inhibits T lymphocytes maturation and proliferation, while Kynurenine, the end product of tryptophan catabolism, is also known as immunosuppressive metabolite that promotes immune tolerance in various physiological and pathophysiological conditions. To test the effect of sCD28 on IDO, isolated human monocytes were stimulated for 48 hr with IFNγ (1000 U/mL) in the presence of control human IgG or with recombinant human CD28 (10 μg/mL). After incubation, the monocytes were stained intracellularly for human IDO (FIG. 8E). To facilitate intracellular staining the cells were fixed and permeabilized with BD Cytofix/Cytoperm Buffer Kit. […]

[9] = test system: H22 hepatocellular carcinoma cells; assay: H22 syngeneic mouse model, tumor growth; format: in vivo; conditions: Balb/c mice, H22 allograft, with anti-PD-1 therapy
Source text: The closest option is to administer recombinant sCD28 to mice to mimic a situation of elevated sCD28 levels. This was investigated in a H22 syngeneic mouse model. Balb/c fully immunocompetent mice received an allograft of H22 hepatocellular carcinoma cells.

human CD4 T cells = assay: Soluble CD28 generation by PHA activated CD4 T cells, CD28 ELISA; format: cell-based; conditions: PHA 1-4 μg/mL, TAPI-1 and GM6001 cocktail 0.5-2 μM
Procedure: as §1, §2
(§3) PHA activation of CD4 T cells or Jurkat T cell line for the generation of soluble CD28—1×10^5 Jurkat cells or CD4 T cells were incubated with the indicated concentration of Phytohemagglutinin (Sigma, Cat. No. L8902) and various protease inhibitors for additional 5 (Jurkat) or 7 days (CD4 T cells).

Jurkat T cell line = assay: Soluble CD28 generation by PHA activated Jurkat T cell line, CD28 ELISA; format: cell-based, human; conditions: PHA 1-4 μg/mL, TAPI-1 and GM6001 cocktail 0.5-2 μM
Procedure: as §1, §2, §3

MK-3475: Anti-Human PD-1 pembrolizumab [reference compound]
proinflammatory cytokine secretion (IFN gamma and IL-2) (human PBMCs [1]; PBMC culture, SEB or CMV, 3 days, MK3475 5 μg/mL): increased proinflammatory cytokine secretion | IFN gamma secretion ([2]; CMV peptide 0.5 μg/mL): increased IFN gamma secretion | TGF beta secretion ([2]; CMV peptide 0.5 μg/mL): decreased TGF beta secretion

IL-6: interleukin-6 administered as a positive control
cell proliferation (MTT, % confluency) (SCC-25 cells; SCC-25 cells grown alone): increased

CC#CCOc1ccc(S(=O)(=O)N2CCSC(C)(C)[C@@H]2C(=O)NO)cc1 [TMI-1]
viability of the immune cells (MTT) (human PBMCs [3]): no significant difference | sCD28 levels detected with antibodies of the invention (human PBMCs [4]): Lower levels of sCD28

sCD28: recombinant human CD28 lacking the transmembrane and cytoplasmic domains
effect on MK-3475 activity [5]: rendered the effect of MK-3475 nonexistent | concentration of human IFN gamma in the supernatant ([5]; with or without MK-3475): greatly reduced | effect on immune activation by MK-3475 (human PBMCs [1]; sCD28 2 and 10 μg/mL with MK3475 5 μg/mL): abrogated completely this immune activation effect | lymphocyte cluster formation (human PBMCs [6]): diminish the amount and size of cluster formation | cell proliferation (MTT, % confluency) (SCC-25 cells; SCC-25 coculture with monocytes): by far the greatest increase | effect on CD80-Fc activation (IFN gamma secretion) [7]: counteracted the secondary activation effect of the CD80-Fc | IFN gamma secretion (human PBMCs [8]; CMV 0.5 μg/mL): dose-dependent inhibition of IFN gamma secretion | IL-6 secretion (human PBMCs [8]; CMV 0.5 μg/mL): increase IL-6 cytokine secretion | interleukin-10 secretion (human PBMCs [8]; CMV 0.5 μg/mL): elevation | CD80-Fc amount needed for immune response (human PBMCs [8]; CMV peptide 3 days, constant sCD28, CD80-Fc titration): an increased amount of CD80-Fc was required | PD-L1 expression on monocytes (human monocytes; IFNγ 1000 U/mL 48 hours): upregulated | PD-L2 expression on monocytes (human monocytes; IFNγ 1000 U/mL 48 hours): upregulated | IDO expression in monocytes (human monocytes; IFNγ 1000 U/mL 48 hr): strongly enhanced IDO expression | effect on anti-PD-1 therapy (tumor growth) [9]: nearly completely abrogated in two of the mice | IFN gamma secretion ([2]; CMV peptide 0.5 μg/mL): inhibit IFN gamma secretion | TGF beta secretion ([2]; CMV peptide 0.5 μg/mL): increasing the secretion | IL-1B secretion ([2]; CMV peptide 0.5 μg/mL, 5 days): increasing the secretion | IL-10 secretion ([2]; CMV peptide 0.5 μg/mL, 5 days): increasing the secretion | effect of MK-3475 in the presence of sCD28 ([2]; MK3475 5 μg/mL): significantly reduced

CC(C)C[C@H](CC(=O)NO)C(=O)N[C@@H](Cc1ccc2ccccc2c1)C(=O)N[C@@H](C)C(=O)NCCN [TAPI-1]
amount of sCD28 in supernatant (human CD4 T cells): diminished the amount of sCD28 | amount of sCD28 in supernatant (Jurkat T cell line): diminished the amount of sCD28 | amount of sCD28 in culture (human PBMCs [4]; PBMCs stimulated with SEB or CMV, TAPI-1 and GM6001 protease inhibitor cocktail): diminish the amount of sCD28 in a dose dependent manner | sCD28 levels detected with antibodies of the invention (human PBMCs [4]): Lower levels of sCD28
